The values that follow are results of earlier work, collected in paper PMC9186412, “Rational Framework for the Design of Trp- and Arg-Rich Peptide Antibiotics Against Multidrug-Resistant Bacteria” (Frontiers in Microbiology, 2022).

Data set [1] concerns CDC AR isolates. More on the design: key: S (green), susceptible; I (blue), intermediate; R (red), resistant. Particulars: data provided by the CDC, ref CDC, cited from earlier work. From the text:
Supplement Table_3.XLSX, sheet "CDC AR isolates profiles" | column: G(-) strains

In data set [2] the test system is CDC AR isolates. More on the design: key: S (green), susceptible; I (blue), intermediate; R (red), resistant. As to conditions: data provided by the CDC, ref CDC, cited from earlier work. This is another data set of the same source.
Where [3] appears, read: Enterococcus faecium EF671, CDC AR isolate.
Where [4] appears, read: Enterococcus faecium EF672, CDC AR isolate.
Where [5] appears, read: Enterococcus faecium EF673, CDC AR isolate.
Setting [6] is: Escherichia coli EC541, CDC AR isolate.
The mark [7] stands for this setting: Escherichia coli EC543, CDC AR isolate.
The mark [8] stands for this setting: Escherichia coli EC544, CDC AR isolate.
[9] abbreviates: Escherichia coli EC549, CDC AR isolate.
Where [10] appears, read: Staphylococcus aureus SA462, CDC AR isolate.
Where [11] appears, read: Staphylococcus aureus SA463, CDC AR isolate.
Where [12] appears, read: Staphylococcus aureus SA561, CDC AR isolate.
[13] abbreviates: Staphylococcus aureus SA461, CDC AR isolate.
The mark [14] stands for this setting: Acinetobacter baumannii AB273, CDC AR isolate.
[15] abbreviates: Acinetobacter baumannii AB274, CDC AR isolate.
Where [16] appears, read: Acinetobacter baumannii AB275, CDC AR isolate.
[17] abbreviates: Acinetobacter baumannii AB276, CDC AR isolate.
Where [18] appears, read: Enterobacter cloacae E62, CDC AR isolate.
Where [19] appears, read: Enterobacter cloacae E544, CDC AR isolate.
[20] abbreviates: Enterobacter cloacae E545, CDC AR isolate.
Setting [21] is: Enterobacter cloacae E546, CDC AR isolate.
[22] abbreviates: Klebsiella pneumoniae KP542, CDC AR isolate.
[23] abbreviates: Klebsiella pneumoniae KP548, CDC AR isolate.
Setting [24] is: Klebsiella pneumoniae KP550, CDC AR isolate.
Setting [25] is: Klebsiella pneumoniae KP552, CDC AR isolate.
The mark [26] stands for this setting: Pseudomonas aeruginosa PA229, CDC AR isolate.
Where [27] appears, read: Pseudomonas aeruginosa PA230, CDC AR isolate.
Where [28] appears, read: Pseudomonas aeruginosa PA231, CDC AR isolate.
Setting [29] is: Pseudomonas aeruginosa PA232, CDC AR isolate.
[30] abbreviates: Pseudomonas aeruginosa PA239, CDC AR isolate.

Like-named read-outs stand apart in the source and are kept apart here.

In the case of Teicoplanin, the Antibiotic susceptibility profile entry in data set [1] (Enterococcus faecium EF500, CDC AR isolate) was “S”; in data set [1] (setting [3]) it was “S”; in data set [1] (setting [4]) it was “S”; in data set [2] (setting [5]) it was “S”.

In the case of `CCO/N=C(\C(=O)N[C@@H]1C(=O)N2C(C(=O)[O-])=C(Sc3nc(-c4cc[n+](C)cc4)cs3)CS[C@H]12)c1nsc(N)n1` [Ceftaroline], the Antibiotic susceptibility profile entry in data set [1] (setting [6]) is given as “R”; in data set [1] (setting [7]), “R”; in data set [1] (setting [8]) it was “R”; in data set [1] (setting [9]), “R”; in data set [1] (setting [10]) it was “S”; in data set [1] (setting [11]) it was “S”. Moreover, the Antibiotic susceptibility profile entry in data set [1] (setting [12]) and in data set [2] (setting [13]) was “S” in each case.

Regarding `Nc1nc(-n2cc(C(=O)O)c(=O)c3cc(F)c(N4CC(O)C4)c(Cl)c32)c(F)cc1F` [Delafloxacin], the Antibiotic susceptibility profile entry in data set [1] (setting [3]), in data set [1] (setting [4]) and in data set [2] (setting [5]) was “S” each time.

On to `CN(C)[C@@H]1C(O)=C(C(N)=O)C(=O)[C@@]2(O)C(O)=C3C(=O)c4c(O)cccc4[C@@](C)(O)[C@H]3C[C@@H]12` [Tetracycline], for which the Antibiotic susceptibility profile result in data set [1] (setting [14]) is listed as “R”; in data set [1] (setting [15]), “R”; in data set [1] (setting [16]) it was “R”; in data set [1] (setting [17]), “S”; in data set [1] (setting [18]) it was “S”; in data set [1] (setting [19]), “R”. Besides, the Antibiotic susceptibility profile result in data set [1] (setting [20]) is “I”; in data set [1] (setting [21]), “R”; in data set [1] (setting [6]), “R”; in data set [1] (setting [7]), “R”; in data set [1] (setting [8]), “R”; in data set [1] (setting [9]) it was “R”. In addition, the Antibiotic susceptibility profile entry is listed as “R” in data set [1] (setting [22]); “I” in data set [1] (setting [23]); “S” in data set [1] (setting [24]); “R” in data set [1] (setting [25]); “S” in data set [1] (setting [10]); “S” in data set [1] (setting [11]). Also, the Antibiotic susceptibility profile entry in data set [1] (setting [12]) is listed as “R”; in data set [2] (setting [13]), “S”.

With `CN(C)c1ccc(O)c2c1C[C@H]1C[C@H]3[C@H](N(C)C)C(O)=C(C(N)=O)C(=O)[C@@]3(O)C(O)=C1C2=O` [Minocycline], the Antibiotic susceptibility profile entry in data set [1] (setting [14]) is recorded as “I”; in data set [1] (setting [15]), “I”; in data set [1] (setting [16]), “I”; in data set [1] (setting [17]), “S”.

As for `CN(C)c1cc(CNCC(C)(C)C)c(O)c2c1C[C@H]1C[C@H]3[C@H](N(C)C)C(O)=C(C(N)=O)C(=O)[C@@]3(O)C(O)=C1C2=O` [Omadacycline], the Antibiotic susceptibility profile entry in data set [1] (setting [22]) was “R”; in data set [1] (setting [23]), “R”; in data set [1] (setting [24]), “R”; in data set [1] (setting [25]), “S”.

Take `NCC[C@H](O)C(=O)N[C@@H]1C[C@H](N)[C@@H](O[C@H]2O[C@H](CN)[C@@H](O)[C@H](O)[C@H]2O)[C@H](O)[C@H]1O[C@H]1O[C@H](CO)[C@@H](O)[C@H](N)[C@H]1O` [Amikacin]: the Antibiotic susceptibility profile entry was “R” in data set [1] (setting [14]); “S” in data set [1] (setting [15]); “R” in data set [1] (setting [16]); “I” in data set [1] (setting [17]); “S” in data set [1] (setting [18]); “S” in data set [1] (setting [19]). Moreover, the Antibiotic susceptibility profile entry is given as “S” in data set [1] (setting [20]); “R” in data set [1] (setting [21]); “R” in data set [1] (setting [6]); “S” in data set [1] (setting [7]); “S” in data set [1] (setting [8]); “S” in data set [1] (setting [9]). For the same molecule, the Antibiotic susceptibility profile result in data set [1] (setting [22]) is recorded as “R”; in data set [1] (setting [23]), “S”; in data set [1] (setting [24]), “S”; in data set [1] (setting [25]), “S”; in data set [1] (setting [26]), “S”; in data set [1] (setting [27]), “R”. Moreover, the Antibiotic susceptibility profile entry is “S” in data set [1] (setting [28]), “S” in data set [1] (setting [29]) and “R” in data set [1] (setting [30]).

On to `C[C@@H](O)[C@H]1C(=O)N2C(C(=O)O)=C(S[C@@H]3CN[C@H](CNS(N)(=O)=O)C3)[C@H](C)[C@H]12` [Doripenem], for which the Antibiotic susceptibility profile entry is recorded as “R” in data set [1] (setting [14]); “R” in data set [1] (setting [15]); “R” in data set [1] (setting [16]); “R” in data set [1] (setting [17]); “S” in data set [1] (setting [18]); “R” in data set [1] (setting [19]). The Antibiotic susceptibility profile entry in data set [1] (setting [20]) is on record as “S”; in data set [1] (setting [21]), “R”; in data set [1] (setting [6]), “S”; in data set [1] (setting [7]) it was “I”; in data set [1] (setting [8]) it was “R”; in data set [1] (setting [9]), “R”. The Antibiotic susceptibility profile entry in data set [1] (setting [22]) is “I”; in data set [1] (setting [23]) it was “R”; in data set [1] (setting [24]) it was “R”; in data set [1] (setting [25]) it was “R”; in data set [1] (setting [26]) it was “R”; in data set [1] (setting [27]), “R”. Also, the Antibiotic susceptibility profile entry in data set [1] (setting [28]) is “R”; in data set [1] (setting [29]), “S”; in data set [1] (setting [30]), “R”.

Regarding `O=C(O)c1cn(C2CC2)c2cc(N3CCNCC3)c(F)cc2c1=O` [Ciprofloxacin], the Antibiotic susceptibility profile entry in data set [1] (setting [14]), in data set [1] (setting [15]), in data set [1] (setting [16]), in data set [1] (setting [17]), in data set [1] (setting [26]) and in data set [1] (setting [27]) was “R” each time. Besides, the Antibiotic susceptibility profile result in data set [1] (setting [28]), in data set [1] (setting [29]) and in data set [1] (setting [30]) was “R” each time.
